Experiments:
Assay type in all cases: toxicity, cell-based
Fibroblast = assay: Incucyte cell viability with human fibroblast; details: 10 µM, compound concentration 10 uM
U2OS = assay: Incucyte cell viability with U2OS; details: human, 10 µM, compound concentration 10 uM
HEK-293T = assay: Incucyte cell viability with HEK293T; details: human, 10 µM, compound concentration 10 uM
[1] = 0 h, replicate number 2, timepoint 0 hours
[2] = 6 h, replicate number 1, timepoint 6 hours
[3] = 12 h, replicate number 1, timepoint 12 hours
[4] = 12 h, replicate number 2, timepoint 12 hours
[5] = 18 h, replicate number 2, timepoint 18 hours
[6] = 24 h, replicate number 1, timepoint 24 hours
[7] = 24 h, replicate number 2, timepoint 24 hours
[8] = 0 h, replicate number 1, timepoint 0 hours
[9] = 18 h, replicate number 1, timepoint 18 hours
[10] = 6 h, replicate number 2, timepoint 6 hours
Further: unitless GR value; below 1 slowed growth and below 0 cell loss.

SMILES | Growth Rate (Fibroblast; [1]) | Growth Rate (Fibroblast; [2]) | Growth Rate (Fibroblast; [3]) | Growth Rate (Fibroblast; [4]) | Growth Rate (Fibroblast; [6]) | Growth Rate (Fibroblast; [7]) | Growth Rate (U2OS; [8]) | Growth Rate (U2OS; [2]) | Growth Rate (U2OS; [9]) | Growth Rate (U2OS; [6]) | Growth Rate (HEK-293T; [8]) | Growth Rate (HEK-293T; [1]) | Growth Rate (HEK-293T; [3]) | Growth Rate (HEK-293T; [9]) | Growth Rate (HEK-293T; [6]) | Growth Rate (Fibroblast; [9]) | Growth Rate (U2OS; [1]) | Growth Rate (U2OS; [3]) | Growth Rate (U2OS; [5]) | Growth Rate (Fibroblast; [8]) | other results
CN[C@@H](C)C(=O)N[C@H]1CCCC[C@H]2CC[C@@H](C(=O)N[C@@H](c3ccccc3)c3cn(CCCCc4ccc(CCCCn5cc([C@@H](NC(=O)[C@@H]6CC[C@@H]7CCCC[C@H](NC(=O)[C@H](C)NC)C(=O)N76)c6ccccc6)nn5)cc4)nn3)N2C1=O | 0.01 | 0.17 | 0.57 | 0.75 | 0.71 | 0.81 | -0.18 | 0.83 | 0.97 | 1 | 0.2 | 0.49 | 0.73 | 0.93 | 0.66 |  |  |  |  |  | Growth Rate (Fibroblast; [5]): 0.88; Growth Rate (HEK-293T; [2]): 0.5; Growth Rate (HEK-293T; [10]): 0.74; Growth Rate (HEK-293T; [4]): 0.75; Growth Rate (HEK-293T; [5]): 0.8; Growth Rate (HEK-293T; [7]): 0.84
CCCCOCCOc1nc(-c2ccc(C(=O)O)c(F)c2)sc1C | -0.25 | 0.05 | 0.16 | 0.63 | 0.23 | 0.7 | -0.03 | 0.21 | 0.88 | 0.94 | 0.61 | 0.25 |  | 0.94 | 0.95 | 0.35 | -0.3 | 0.49 | 0.86 |  | Growth Rate (Fibroblast; [5]): 0.73; Growth Rate (U2OS; [10]): 0.97; Growth Rate (U2OS; [7]): 0.84; Growth Rate (HEK-293T; [10]): 0.87; Growth Rate (HEK-293T; [4]): 0.88; Growth Rate (HEK-293T; [5]): 0.82; Growth Rate (HEK-293T; [7]): 0.69
O=C1[C@H](Cc2ccc(O)cc2)N2C(=O)CCN(C(=O)NCc3ccccc3)[C@H]2CN1Cc1cccc2ccccc12 | 0.82 | -0.77 | -0.6 | -0.16 | -0.54 | -0.02 | -0.65 | 0.4 | 0.11 | 0.3 | 0.98 | 0.37 | -0.35 | -0.29 | -0.24 | -0.71 | 0.18 | 0.14 | 0.51 | 0.78 | Growth Rate (Fibroblast; [10]): 0.03; Growth Rate (Fibroblast; [5]): -0.07; Growth Rate (U2OS; [10]): 0.87; Growth Rate (U2OS; [4]): 0.6; Growth Rate (U2OS; [7]): 0.57; Growth Rate (HEK-293T; [2]): -0.42; Growth Rate (HEK-293T; [10]): -0.2; Growth Rate (HEK-293T; [4]): -0.29; Growth Rate (HEK-293T; [5]): -0.22; Growth Rate (HEK-293T; [7]): -0.21
Cc1sc2c(c1C)C(c1ccc(Cl)cc1)=N[C@H](CC(=O)OC(C)(C)C)c1nnc(C)n1-2 |  | -0.25 | 0.45 |  | 0.98 |  |  | 0.83 | 0.97 | 0.92 | 0.38 | 0.63 |  | 0.85 | 0.81 | 0.98 |  | 0.95 |  |  | Growth Rate (HEK-293T; [4]): 0.95; Growth Rate (HEK-293T; [5]): 0.87; Growth Rate (HEK-293T; [7]): 0.86
CCc1cc2cc(NS(=O)(=O)c3ccc(C#N)cc3)ccc2n(CC)c1=O |  | 0.31 | 0.22 | 0.12 | -0.17 | 0.07 | -0.59 | 0.95 | 0.95 | 0.96 | 1 | 0.08 | 0.34 | 0.23 | 0.13 | 0.07 | -0.07 |  | 0.93 | 0.94 | Growth Rate (Fibroblast; [10]): -0.17; Growth Rate (Fibroblast; [5]): 0.13; Growth Rate (U2OS; [4]): 0.85; Growth Rate (HEK-293T; [2]): 0.21; Growth Rate (HEK-293T; [4]): 0.96; Growth Rate (HEK-293T; [5]): 0.84; Growth Rate (HEK-293T; [7]): 0.59
CN(C)C(=O)Cn1cc(-c2ccc(-c3cncc4ccccc34)cc2)cn1 |  |  | 0.27 | 1 | 0.05 | 0.61 | -0.34 | 0.31 | 0.59 | 0.7 | 0.84 |  | 0.97 | 0.9 | 0.9 | 0.21 | 0.27 | 0.43 | 0.76 |  | Growth Rate (Fibroblast; [5]): 0.82; Growth Rate (U2OS; [10]): 0.79; Growth Rate (U2OS; [4]): 0.74; Growth Rate (U2OS; [7]): 0.86
COc1c(C)cc(NC(=O)c2nn(Cc3ccc(F)cc3)c3c2CN(C(=O)c2ccc[nH]2)C[C@]3(C)C(N)=O)cc1C | 0.51 | -0.71 | -0.33 | 0.15 | -0.31 | 0.29 | -0.69 | 0.56 | 0.61 | 0.61 | 0.79 |  | 0.13 | 0.11 | 0.15 | -0.18 | -0.16 | 0.56 | 0.66 | 0.8 | Growth Rate (Fibroblast; [10]): 0.46; Growth Rate (Fibroblast; [5]): 0.32; Growth Rate (U2OS; [10]): 0.73; Growth Rate (U2OS; [4]): 0.68; Growth Rate (U2OS; [7]): 0.67; Growth Rate (HEK-293T; [2]): 0.35
Cc1cc(C)cc([C@@H]2c3cc(C)ccc3NC(=O)CN2C(=O)c2ccc(Br)s2)c1 | 0.74 |  |  |  | 1 |  |  |  | 0.98 |  | 0.35 | 0.57 | 0.65 | 0.61 | 0.46 |  |  |  | 0.81 | 0.17 | Growth Rate (U2OS; [7]): 0.89; Growth Rate (HEK-293T; [2]): 0.88; Growth Rate (HEK-293T; [4]): 0.79; Growth Rate (HEK-293T; [5]): 0.69; Growth Rate (HEK-293T; [7]): 0.7
Cc1cc(C)cc([C@H]2c3cc(C)ccc3NC(=O)CN2C(=O)c2ccc(Br)s2)c1 | 0.88 | 0.06 | 0.6 | 0.64 | 0.33 | 0.97 | -0.56 | 0.12 | 0.52 | 0.67 | -0.3 | 0.03 | 0.79 | 0.58 | 0.65 | 0.44 |  | 0.65 | 0.88 | 0.07 | Growth Rate (U2OS; [7]): 0.94; Growth Rate (HEK-293T; [2]): 0.95; Growth Rate (HEK-293T; [4]): 0.81; Growth Rate (HEK-293T; [5]): 0.92; Growth Rate (HEK-293T; [7]): 0.83
CN(C)C(=O)Cn1cc(-c2ccc(-c3nnc4ccccn34)cc2)cn1 | 0.31 |  | 0.37 | 0.94 | 0.56 | 0.74 | -0.47 | 0.68 | 0.79 | 0.83 | 0.69 |  | 0.74 | 0.88 | 0.78 | 0.8 | 0.08 | 0.46 | 0.91 | 0.68 | Growth Rate (Fibroblast; [5]): 0.91; Growth Rate (HEK-293T; [2]): 0.7
Cc1cc(CN)cc(C)c1-c1ncn(C)c1-c1cncn1C | -0.16 | 0.41 |  |  |  |  | -0.39 | 0.65 | 0.74 | 0.73 | 0.03 | -0.09 | 0.88 |  | 0.89 |  | 0.16 | 0.71 |  | 0.66 | Growth Rate (U2OS; [10]): 0.66; Growth Rate (U2OS; [4]): 0.95
CC(C)Oc1ccc(-c2c[nH]cc2CN(C)CCO)cc1 | 0.41 |  |  |  |  |  | -0.46 | 0.97 | 0.71 | 0.94 | 0.59 | 0.6 |  |  | 1 |  | 0.69 | 0.45 |  | 0.53 | 
O=C1Nc2ccc(I)cc2/C1=C/c1cc(Br)c(O)c(Br)c1 | 0.15 |  |  |  |  |  |  |  |  |  | -0.08 | 0.11 |  | 0.97 | 0.91 |  | -0.15 | 0.89 |  | -0.2 | 

Source: ChEMBL document CHEMBL5058564, “EUbOPEN Chemogenomics Library 2 (Incucyte)” (2022)
